Patent US12139520B2 (priority 2020, dated 2024)
One block for each molecule: values may come before it. Numbered stars: 1 amine (or outer) side, 2 acyl side, 3 side chain; on linkers, the order of the positions; unused ones are H or OH. Bridge positions count the residues as written; N and C are the ends. Square brackets hold non-standard residues; d marks the D form. Peptide text beside a SMILES is read from it. * marks the point of attachment. C20 diacid = O=C(O)CCCCCCCCCCCCCCCCCCC(=O)*; γGlu = O=C(O)[C@H](CCC(=O)[*:2])N[*:1]; Hyp = O=C(O)[C@@H]1C[C@@H](O)CN1

Assays:
hAMY3 receptor = target: T1, hAMY3 receptor (Homo sapiens, UniProt O60896+P30988); test: cAMP assay for in vitro receptor activation, hAMY3-R; type: cell-based; settings: cAMP assay, hAMY3 receptor; read-out: hAMY3R EC50
T1 sequence (P30988 25-474): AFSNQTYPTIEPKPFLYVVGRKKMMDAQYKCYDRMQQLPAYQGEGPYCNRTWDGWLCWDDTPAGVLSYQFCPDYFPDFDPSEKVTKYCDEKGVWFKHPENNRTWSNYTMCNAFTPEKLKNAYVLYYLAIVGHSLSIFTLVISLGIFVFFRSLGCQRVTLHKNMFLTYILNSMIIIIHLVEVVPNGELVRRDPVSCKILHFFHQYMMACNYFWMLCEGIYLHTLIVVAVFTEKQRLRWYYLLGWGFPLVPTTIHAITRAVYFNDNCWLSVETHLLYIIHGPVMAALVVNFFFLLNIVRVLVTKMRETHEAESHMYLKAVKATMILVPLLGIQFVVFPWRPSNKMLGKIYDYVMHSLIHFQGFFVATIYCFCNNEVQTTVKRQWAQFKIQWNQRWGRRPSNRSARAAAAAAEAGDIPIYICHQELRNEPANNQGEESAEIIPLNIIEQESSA
T1 sequence (O60896 24-148 partner): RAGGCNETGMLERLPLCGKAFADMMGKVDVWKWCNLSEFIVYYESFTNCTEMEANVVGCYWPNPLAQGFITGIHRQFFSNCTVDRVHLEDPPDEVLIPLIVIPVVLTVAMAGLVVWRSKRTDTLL
In short: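 Stable hAMY3 cells; DPBS + 0.05% casein + 0.5 mM IBMX; graded compound doses, 30 min, RT; cAMP via HTRF Gs kit, TR-FRET read at 1 h.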

hAM1 receptor = hAM1 receptor (Homo sapiens, UniProt O60895+Q16602); test: cAMP assay for in vitro receptor activation, hAM1-R; type: cell-based; settings: cAMP assay, hAM1 receptor; read-out: hAM1R EC50
In short: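 Monoclonal stable hAM1-overexpressing cells, thawed from frozen stock; 8000 cells/well in DPBS + 0.05% casein + 0.5 mM IBMX; read-out cAMP.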

Sequence of hAM1 receptor (Q16602 23-461): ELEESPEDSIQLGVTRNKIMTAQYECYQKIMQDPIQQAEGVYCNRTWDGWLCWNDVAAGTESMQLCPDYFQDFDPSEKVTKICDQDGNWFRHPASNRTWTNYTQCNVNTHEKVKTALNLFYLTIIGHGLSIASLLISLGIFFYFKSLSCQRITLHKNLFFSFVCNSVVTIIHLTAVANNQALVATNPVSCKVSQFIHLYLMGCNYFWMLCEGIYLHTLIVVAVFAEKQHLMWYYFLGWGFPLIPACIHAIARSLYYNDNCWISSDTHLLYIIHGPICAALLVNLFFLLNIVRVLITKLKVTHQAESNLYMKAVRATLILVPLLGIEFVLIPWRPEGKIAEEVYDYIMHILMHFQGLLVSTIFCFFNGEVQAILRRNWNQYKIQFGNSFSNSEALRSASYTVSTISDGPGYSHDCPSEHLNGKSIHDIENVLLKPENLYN
Sequence of hAM1 receptor (O60895 43-175 partner): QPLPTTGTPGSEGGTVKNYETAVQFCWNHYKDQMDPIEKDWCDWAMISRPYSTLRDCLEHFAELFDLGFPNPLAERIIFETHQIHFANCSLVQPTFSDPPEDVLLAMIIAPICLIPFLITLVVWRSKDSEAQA

SMILES: CC[C@H](C)[C@H](NC(=O)[C@H](CCC(N)=O)NC(=O)[C@H](CCC(=O)O)NC(=O)[C@H](C)NC(=O)[C@H](CC(C)C)NC(=O)[C@H](CCCNC(=N)N)NC(=O)[C@H](CCC(N)=O)NC(=O)[C@@H](NC(=O)[C@@H](NC(=O)[C@@H]1CSSC[C@H](NC(=O)[C@@H](N)CCCCN)C(=O)N[C@@H](CC(N)=O)C(=O)N[C@@H]([C@@H](C)O)C(=O)N[C@@H](C)C(=O)N[C@@H]([C@@H](C)O)C(=O)N1)[C@@H](C)O)C(C)C)C(=O)N[C@@H](Cc1ccc(O)cc1)C(=O)N[C@@H](CCC(N)=O)C(=O)N[C@@H](Cc1ccccc1)C(=O)N[C@H](C(=O)N[C@@H](CC(=O)O)C(=O)N[C@@H](CCCCN)C(=O)N[C@@H](CC(=O)O)C(=O)N[C@@H](CCCCN)C(=O)N[C@@H](CC(=O)O)C(=O)N[C@@H](CC(N)=O)C(=O)N[C@H](C(=O)N[C@@H](C)C(=O)N1CCC[C@H]1C(=O)N1CCC[C@H]1C(=O)N[C@@H](Cc1ccc(O)cc1)C(=O)N[C@@H](CC(N)=O)C(=O)N[C@@H](CCC(=O)O)C(=O)NCC(=O)N[C@@H](CO)C(=O)N[C@@H](CC(N)=O)C(=O)NCC(=O)N1C[C@H](O)C[C@H]1C(N)=O)C(C)C)[C@@H](C)O [compound 44] (H-KCNTATCTVQRLAEQIYQFTDKDKDNVAPPYNEGSNG[Hyp]-NH2; disulfide 2-7; N-terminus assumed)
EC50 (hAMY3 receptor): 0.01 nM
EC50 (hAM1 receptor): > 5000 nM

SMILES: CC[C@H](C)[C@H](NC(=O)[C@H](CCC(N)=O)NC(=O)[C@H](Cc1c[nH]cn1)NC(=O)[C@H](C)NC(=O)[C@H](CC(C)C)NC(=O)[C@H](CCCNC(=N)N)NC(=O)[C@H](CCC(N)=O)NC(=O)[C@@H](NC(=O)[C@@H](NC(=O)[C@@H]1CSSC[C@H](NC(=O)[C@H](CCCCN)NC(=O)CC[C@H](NC(=O)CCCCCCCCCCCCCCCCCCC(=O)O)C(=O)O)C(=O)N[C@@H](CC(N)=O)C(=O)N[C@@H]([C@@H](C)O)C(=O)N[C@@H](CO)C(=O)N[C@@H]([C@@H](C)O)C(=O)N1)[C@@H](C)O)C(C)C)C(=O)N[C@@H](Cc1ccc(O)cc1)C(=O)N[C@@H](CCC(N)=O)C(=O)N[C@@H](Cc1ccccc1)C(=O)N[C@H](C(=O)N[C@@H](CC(=O)O)C(=O)N[C@@H](CCCCN)C(=O)N[C@@H](CC(=O)O)C(=O)N[C@@H](CCCCN)C(=O)N[C@@H](CC(=O)O)C(=O)N[C@@H](CC(N)=O)C(=O)N[C@H](C(=O)N[C@@H](C)C(=O)N1CCC[C@H]1C(=O)N1CCC[C@H]1C(=O)N[C@H](C(=O)N[C@@H](CC(N)=O)C(=O)N[C@H](C(=O)NCC(=O)N[C@@H](CO)C(=O)N[C@@H](CC(N)=O)C(=O)NCC(=O)N1C[C@H](O)C[C@H]1C(N)=O)C(C)C)[C@@H](C)O)C(C)C)[C@@H](C)O [compound 50] ({C20 diacid-γGlu}-KCNTSTCTVQRLAHQIYQFTDKDKDNVAPPTNVGSNG[Hyp]-NH2; disulfide 2-7)
EC50 (hAMY3 receptor): 0.011 nM
EC50 (hAM1 receptor): > 5000 nM

SMILES: CC[C@H](C)[C@H](NC(=O)[C@H](CCC(N)=O)NC(=O)[C@H](CCC(=O)O)NC(=O)[C@H](C)NC(=O)[C@H](CC(C)C)NC(=O)[C@H](CCCNC(=N)N)NC(=O)[C@H](CCC(N)=O)NC(=O)[C@@H](NC(=O)[C@@H](NC(=O)[C@@H]1CSSC[C@H](NC(=O)[C@H](CCCCN)NC(=O)CC[C@H](NC(=O)CCCCCCCCCCCCCCCCCCC(=O)O)C(=O)O)C(=O)N[C@@H](CC(N)=O)C(=O)N[C@@H]([C@@H](C)O)C(=O)N[C@@H](C)C(=O)N[C@@H]([C@@H](C)O)C(=O)N1)[C@@H](C)O)C(C)C)C(=O)N[C@@H](Cc1ccc(O)cc1)C(=O)N[C@@H](CCC(N)=O)C(=O)N[C@@H](Cc1ccccc1)C(=O)N[C@H](C(=O)N[C@@H](CC(=O)O)C(=O)N[C@@H](CCCCN)C(=O)N[C@@H](CC(=O)O)C(=O)N[C@@H](CCCCN)C(=O)N[C@@H](CC(=O)O)C(=O)N[C@@H](CC(N)=O)C(=O)N[C@H](C(=O)N[C@@H](C)C(=O)N1CCC[C@H]1C(=O)N1CCC[C@H]1C(=O)N[C@H](C(=O)N[C@@H](CC(N)=O)C(=O)N[C@H](C(=O)NCC(=O)N[C@@H](CO)C(=O)N[C@@H](CC(N)=O)C(=O)NCC(=O)N1C[C@H](O)C[C@H]1C(N)=O)C(C)C)[C@@H](C)O)C(C)C)[C@@H](C)O [compound 51] ({C20 diacid-γGlu}-KCNTATCTVQRLAEQIYQFTDKDKDNVAPPTNVGSNG[Hyp]-NH2; disulfide 2-7)
EC50 (hAMY3 receptor): 0.011 nM
EC50 (hAM1 receptor): > 5000 nM

SMILES: CC[C@H](C)[C@H](NC(=O)[C@H](CCC(N)=O)NC(=O)[C@H](Cc1c[nH]cn1)NC(=O)[C@H](C)NC(=O)[C@H](CC(C)C)NC(=O)[C@H](CCCNC(=N)N)NC(=O)[C@H](CCC(N)=O)NC(=O)[C@@H](NC(=O)[C@@H](NC(=O)[C@@H]1CSSC[C@H](NC(=O)[C@@H](N)CCCCN)C(=O)N[C@@H](CC(N)=O)C(=O)N[C@@H]([C@@H](C)O)C(=O)N[C@@H](C)C(=O)N[C@@H]([C@@H](C)O)C(=O)N1)[C@@H](C)O)C(C)C)C(=O)N[C@@H](Cc1ccc(O)cc1)C(=O)N[C@@H](CCC(N)=O)C(=O)N[C@@H](Cc1ccccc1)C(=O)N[C@H](C(=O)N[C@@H](CC(=O)O)C(=O)N[C@@H](CCCCN)C(=O)N[C@@H](CC(=O)O)C(=O)N[C@@H](CCCCN)C(=O)N[C@@H](CC(=O)O)C(=O)N[C@@H](CC(N)=O)C(=O)N[C@H](C(=O)N[C@@H](C)C(=O)N[C@@H](C)C(=O)N1CCC[C@H]1C(=O)N[C@H](C(=O)N[C@@H](CC(N)=O)C(=O)N[C@H](C(=O)NCC(=O)N[C@@H](CO)C(=O)N[C@@H](CC(N)=O)C(=O)NCC(=O)N1C[C@H](O)C[C@H]1C(N)=O)C(C)C)[C@@H](C)O)C(C)C)[C@@H](C)O [compound 53] (H-KCNTATCTVQRLAHQIYQFTDKDKDNVAAPTNVGSNG[Hyp]-NH2; disulfide 2-7; N-terminus assumed)
EC50 (hAMY3 receptor): 0.011 nM
EC50 (hAM1 receptor): > 5000 nM

Continued, values first:

EC50 (hAMY3 receptor): 0.012 nM
EC50 (hAM1 receptor): > 5000 nM
SMILES: CC[C@H](C)[C@H](NC(=O)[C@H](C)NC(=O)CNC(=O)[C@H](Cc1ccccc1)NC(=O)[C@H](CC(N)=O)NC(=O)[C@H](CC(N)=O)NC(=O)[C@H](CO)NC(=O)[C@H](CO)NC(=O)[C@H](Cc1c[nH]cn1)NC(=O)[C@@H](NC(=O)[C@H](CC(C)C)NC(=O)[C@H](Cc1ccccc1)NC(=O)[C@H](CC(N)=O)NC(=O)[C@H](C)NC(=O)[C@H](CC(C)C)NC(=O)[C@H](CCCNC(=N)N)NC(=O)[C@H](CCC(N)=O)NC(=O)[C@@H](NC(=O)[C@H](C)NC(=O)[C@@H]1CSSC[C@H](NC(=O)[C@@H](N)CCCCN)C(=O)N[C@@H](CC(N)=O)C(=O)N[C@@H]([C@@H](C)O)C(=O)N[C@@H](C)C(=O)N[C@@H]([C@@H](C)O)C(=O)N1)[C@@H](C)O)C(C)C)C(=O)N[C@@H](CC(C)C)C(=O)N[C@@H](CO)C(=O)N[C@@H](CO)C(=O)N[C@H](C(=O)N[C@@H](CCCCN)C(=O)N[C@H](C(=O)NCC(=O)N[C@@H](CO)C(=O)N[C@@H](CC(N)=O)C(=O)N[C@H](C(=O)N[C@@H](Cc1ccc(O)cc1)C(N)=O)[C@@H](C)O)C(C)C)[C@@H](C)O [compound 58]

EC50 (hAMY3 receptor): 0.012 nM
EC50 (hAM1 receptor): > 5000 nM
SMILES: CC[C@H](C)[C@H](NC(=O)[C@H](C)NC(=O)CNC(=O)[C@H](Cc1ccccc1)NC(=O)[C@H](CC(N)=O)NC(=O)[C@H](CC(N)=O)NC(=O)[C@H](CO)NC(=O)[C@H](CO)NC(=O)[C@H](Cc1c[nH]cn1)NC(=O)[C@@H](NC(=O)[C@H](CC(C)C)NC(=O)[C@H](Cc1ccccc1)NC(=O)[C@H](CC(N)=O)NC(=O)[C@H](C)NC(=O)[C@H](CC(C)C)NC(=O)[C@H](CCCNC(=N)N)NC(=O)[C@H](CCC(N)=O)NC(=O)[C@@H](NC(=O)[C@H](C)NC(=O)[C@@H]1CSSC[C@H](NC(=O)[C@@H](N)CCCCN)C(=O)N[C@@H](CC(N)=O)C(=O)N[C@@H]([C@@H](C)O)C(=O)N[C@@H](C)C(=O)N[C@@H]([C@@H](C)O)C(=O)N1)[C@@H](C)O)C(C)C)C(=O)N[C@@H](CC(C)C)C(=O)N1CCC[C@H]1C(=O)N[C@@H](CO)C(=O)N[C@H](C(=O)N[C@@H](CCCCN)C(=O)N[C@H](C(=O)NCC(=O)N[C@@H](CO)C(=O)N[C@@H](CC(N)=O)C(=O)NCC(=O)N[C@@H](Cc1ccc(O)cc1)C(N)=O)C(C)C)[C@@H](C)O [compound 59] (H-KCNTATCATQRLANFLVHSSNNFGAILPSTKVGSNGY-NH2; disulfide 2-7)
